Laboratory results published in the supplement of paper PMC11208160.

assay: recombinant UMI read abundance after kanamycin selection (control-corrected) (log10(CPM+1)); higher = more efficient recombination; extreme values may be limits of the assay; sequences stand for … in AGTGCAGAGAAAATCGGCCAGTTTTCTCTGCCTGCAGTCCGCATGCCGTGGGACCCCTTGGGTTCTAACCTGTTGCCTAGATTTATGCAGCGGACTGCCTTTCTCCCAAAGTGATAAACCGG…AGGTTGGTTTCACT; site = the 11-nt donor
Outline: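 After plating on IPTG (0.07 mM) plus kanamycin, or unselected, in two replicates, recombinant UMIs were PCR-amplified across the donor–target junction and sequenced. The cells were Escherichia coli co-electroporated with a UMI-tagged donor and donor-binding-loop pair library and a target plasmid with a fixed target and T7-inducible IS621 bridge recombinase. Values are log10(CPM+1), with CPM averaged over replicates and scaled by control-derived factors.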
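Also: IS621 bridge recombinase in Escherichia coli cells against a fixed T5 target plasmid.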

Compared with “ACTAGTGCATGGACCGGTTTTCCCGGTAATCCGTATTTGCT (site ACTAGTGCTAC)”, “ACTAGTGCATGGACCGGTTTTCCCGGTAATCCGTATTTGCT (site ACTAGTGCTAG)” is higher in “recombinant UMI read abundance (log10)” value: 0.00908 for the first, 1.37 for the second.

“ACTAGTGCATGGACCGGTTTTCCCGGTAATCCGTATTTGCT (site ACTAGTGCTAT)” and “ACTATTCCATGGACCGGTTTTCCCGGTAATCCGTATTTGGT (site ACTATTCCTAC)” are within 0.2 log units of each other in “recombinant UMI read abundance (log10)” value: 0.0101 for the first, 0.00382 for the second.

“ACTCAACCATGGACCGGTTTTCCCGGTAATCCGTATTTGGT (site ACTCAACCTAC)” and “ACTCCGCCATGGACCGGTTTTCCCGGTAATCCGTATTTGTG (site ACTCCGCCTCA)” are within 0.2 log units of each other in “recombinant UMI read abundance (log10)” value: 0.00884 for the first, 0.0108 for the second.

First: ACTCCGTCATGGACCGGTTTTCCCGGTAATCCGTATTTGAT (site ACTCCGTCTAT)
Second: ACTCGCACATGGACCGGTTTTCCCGGTAATCCGTATTTGAC (site ACTCGCACTGT)
The “recombinant UMI read abundance (log10)” value of the first is lower: 0.697 for the first, 2.68 for the second.

First: ACTCGGTCATGGACCGGTTTTCCCGGTAATCCGTATTTGTT (site ACTCGGTCTAA)
Second: ACTCGTGCATGGACCGGTTTTCCCGGTAATCCGTATTTGAC (site ACTCGTGCTGT)
The “recombinant UMI read abundance (log10)” value of the first is lower: 0.936 for the first, 2.56 for the second.

First: ACTCGTGCATGGACCGGTTTTCCCGGTAATCCGTATTTGAG (site ACTCGTGCTCT)
Second: ACTCTTTCATGGACCGGTTTTCCCGGTAATCCGTATTTGTT (site ACTCTTTCTAA)
The “recombinant UMI read abundance (log10)” value of the first is higher: 1.4 for the first, 0.0432 for the second.

Compared with “ACTGAGGCATGGACCGGTTTTCCCGGTAATCCGTATTTGAA (site ACTGAGGCTTT)”, “ACTGCAGCATGGACCGGTTTTCCCGGTAATCCGTATTTGCA (site ACTGCAGCTTG)” is lower in “recombinant UMI read abundance (log10)” value: 1.73 for the first, 1.21 for the second.

“ACTGTACCATGGACCGGTTTTCCCGGTAATCCGTATTTGCA (site ACAGTATCTTG)” and “ACTGTACCATGGACCGGTTTTCCCGGTAATCCGTATTTGCA (site ACTGTACCTTG)” are within 0.2 log units of each other in “recombinant UMI read abundance (log10)” value: 0.00951 for the first, 0 for the second.

“ACTGTGTCATGGACCGGTTTTCCCGGTAATCCGTATTTGAC (site AATGTGTCTGT)” and “ACTGTGTCATGGACCGGTTTTCCCGGTAATCCGTATTTGAC (site ACTGTGTCTGT)” are the same in “recombinant UMI read abundance (log10)” value: 0 for the first, 0 for the second.

“ACTGTGTCATGGACCGGTTTTCCCGGTAATCCGTATTTGAC (site AGTGTGTCTGT)” and “ACTGTGTCATGGACCGGTTTTCCCGGTAATCCGTATTTGAC (site ATTGTGTCTGT)” are the same in “recombinant UMI read abundance (log10)” value: 0 for the first, 0 for the second.

Going from “ACTTAATCATGGACCGGTTTTCCCGGTAATCCGTATTTGTA (site ACTTAATCTTA)” to “ACTTAGTCATGGACCGGTTTTCCCGGTAATCCGTATTTGCC (site ACTTAGTCTGG)”, the “recombinant UMI read abundance (log10)” value rises from 2.15 to 2.47.

First: ACTTATGCATGGACCGGTTTTCCCGGTAATCCGTATTTGGA (site AATTATGCTTC)
Second: ACTTATGCATGGACCGGTTTTCCCGGTAATCCGTATTTGGA (site ACTTATGCTTC)
The “recombinant UMI read abundance (log10)” value of the first is lower: 0.425 for the first, 1.41 for the second.

“ACTTATGCATGGACCGGTTTTCCCGGTAATCCGTATTTGGA (site AGTTATGCTTC)” and “ACTTATGCATGGACCGGTTTTCCCGGTAATCCGTATTTGGA (site ATTTATGCTTC)” are within 0.2 log units of each other in “recombinant UMI read abundance (log10)” value: 0.698 for the first, 0.623 for the second.

Compared with “ACTTCCGCATGGACCGGTTTTCCCGGTAATCCGTATTTGTT (site ACTTCCGCTAA)”, “ACTTCTCCATGGACCGGTTTTCCCGGTAATCCGTATTTGAT (site ACTTCTCCTAT)” is lower in “recombinant UMI read abundance (log10)” value: 1.5 for the first, 0.78 for the second.

Going from “ACTTGAACATGGACCGGTTTTCCCGGTAATCCGTATTTGAG (site ACTAGAACTCT)” to “ACTTGAACATGGACCGGTTTTCCCGGTAATCCGTATTTGAG (site ACTCGAACTCT)”, the “recombinant UMI read abundance (log10)” value rises from 0.0666 to 0.999.

Going from “ACTTGAACATGGACCGGTTTTCCCGGTAATCCGTATTTGAG (site ACTGGAACTCT)” to “ACTTGAACATGGACCGGTTTTCCCGGTAATCCGTATTTGAG (site ACTTGAACTCT)”, the “recombinant UMI read abundance (log10)” value falls from 1.23 to 0.998.

First: AGAAACACATGGACCGGTTTTCCCGGTAATCCGTATTTGGT (site AGAAACACTAC)
Second: AGAAAGACATGGACCGGTTTTCCCGGTAATCCGTATTTGCA (site AGAAAGACTTG)
The “recombinant UMI read abundance (log10)” value of the first is lower: 2.3 for the first, 2.6 for the second.

Going from “AGAAAGACATGGACCGGTTTTCCCGGTAATCCGTATTTGCA (site AGCAAGACTTG)” to “AGAAAGACATGGACCGGTTTTCCCGGTAATCCGTATTTGCA (site AGGAAGACTTG)”, the “recombinant UMI read abundance (log10)” value falls from 1.59 to 0.932.

Compared with “AGAAAGACATGGACCGGTTTTCCCGGTAATCCGTATTTGCA (site AGTAAGACTTG)”, “AGAAAGGCATGGACCGGTTTTCCCGGTAATCCGTATTTGAT (site AGAAAGGCTAA)” is lower in “recombinant UMI read abundance (log10)” value: 1.15 for the first, 0.418 for the second.

“AGAAAGGCATGGACCGGTTTTCCCGGTAATCCGTATTTGAT (site AGAAAGGCTAC)” and “AGAAAGGCATGGACCGGTTTTCCCGGTAATCCGTATTTGAT (site AGAAAGGCTAG)” are the same in “recombinant UMI read abundance (log10)” value: 0 for the first, 0 for the second.

Compared with “AGAAAGGCATGGACCGGTTTTCCCGGTAATCCGTATTTGAT (site AGAAAGGCTAT)”, “AGAACGCCATGGACCGGTTTTCCCGGTAATCCGTATTTGCC (site AGAACGCCTGG)” is lower in “recombinant UMI read abundance (log10)” value: 2.28 for the first, 0.968 for the second.

Compared with “AGAATGACATGGACCGGTTTTCCCGGTAATCCGTATTTGCA (site AGAATGACTTG)”, “AGAATGACATGGACCGGTTTTCCCGGTAATCCGTATTTGCA (site AGGAAGACTTG)” is lower in “recombinant UMI read abundance (log10)” value: 2.63 for the first, 1.53 for the second.

Compared with “AGAATGTCATGGACCGGTTTTCCCGGTAATCCGTATTTGGG (site AGAATGTCTCC)”, “AGAATTTCATGGACCGGTTTTCCCGGTAATCCGTATTTGGG (site AGAATTTCTCC)” is lower in “recombinant UMI read abundance (log10)” value: 2.01 for the first, 0.964 for the second.

Compared with “AGACAGCCATGGACCGGTTTTCCCGGTAATCCGTATTTGCA (site AGACAGCCTTG)”, “AGACGCACATGGACCGGTTTTCCCGGTAATCCGTATTTGTT (site AGACGCACTAA)” is higher in “recombinant UMI read abundance (log10)” value: 1.21 for the first, 1.79 for the second.

Going from “AGAGAAGCATGGACCGGTTTTCCCGGTAATCCGTATTTGCG (site AGAGAAGCTCG)” to “AGAGATCCATGGACCGGTTTTCCCGGTAATCCGTATTTGAA (site AGAGATCCTTT)”, the “recombinant UMI read abundance (log10)” value falls from 3.09 to 2.01.

Compared with “AGAGATTCATGGACCGGTTTTCCCGGTAATCCGTATTTGGC (site AGAGATTCTGC)”, “AGAGCTTCATGGACCGGTTTTCCCGGTAATCCGTATTTGGG (site AGAGCTTCTCC)” is lower in “recombinant UMI read abundance (log10)” value: 2.95 for the first, 1.06 for the second.

Going from “AGAGGAGCATGGACCGGTTTTCCCGGTAATCCGTATTTGGC (site AGAGGAGCTGC)” to “AGAGGATCATGGACCGGTTTTCCCGGTAATCCGTATTTGCA (site ACAGTATCTTG)”, the “recombinant UMI read abundance (log10)” value rises from 1.01 to 1.59.

Going from “AGAGGATCATGGACCGGTTTTCCCGGTAATCCGTATTTGCA (site AGAGGATCTTG)” to “AGAGGCACATGGACCGGTTTTCCCGGTAATCCGTATTTGAC (site AGAGGCACTGT)”, the “recombinant UMI read abundance (log10)” value rises from 2.04 to 2.32.

“AGAGTGGCATGGACCGGTTTTCCCGGTAATCCGTATTTGCT (site AGAGTGGCTAG)” and “AGAGTGTCATGGACCGGTTTTCCCGGTAATCCGTATTTGCA (site ACAGTATCTTG)” are within 0.2 log units of each other in “recombinant UMI read abundance (log10)” value: 2.62 for the first, 2.56 for the second.

“AGAGTGTCATGGACCGGTTTTCCCGGTAATCCGTATTTGCA (site AGAGTGTCTTG)” and “AGATAATCATGGACCGGTTTTCCCGGTAATCCGTATTTGCT (site AGATAATCTAG)” are within 0.2 log units of each other in “recombinant UMI read abundance (log10)” value: 3.45 for the first, 3.3 for the second.

Going from “AGATCATCATGGACCGGTTTTCCCGGTAATCCGTATTTGCT (site AGATCATCTAG)” to “AGATCATCATGGACCGGTTTTCCCGGTAATCCGTATTTGCT (site CGATCATCTAG)”, the “recombinant UMI read abundance (log10)” value falls from 1.56 to 0.477.

Going from “AGATCATCATGGACCGGTTTTCCCGGTAATCCGTATTTGCT (site GGATCATCTAG)” to “AGATCATCATGGACCGGTTTTCCCGGTAATCCGTATTTGCT (site TGATCATCTAG)”, the “recombinant UMI read abundance (log10)” value rises from 0.911 to 1.75.

First: AGATGGGCATGGACCGGTTTTCCCGGTAATCCGTATTTGAG (site AGATGGGCTCT)
Second: AGATTAGCATGGACCGGTTTTCCCGGTAATCCGTATTTGAC (site AGATTAGCTGT)
The “recombinant UMI read abundance (log10)” value of the first is lower: 1.06 for the first, 2.75 for the second.

Going from “AGATTATCATGGACCGGTTTTCCCGGTAATCCGTATTTGGA (site AGATTATCTTC)” to “AGATTCTCATGGACCGGTTTTCCCGGTAATCCGTATTTGTG (site AGATTCTCTCA)”, the “recombinant UMI read abundance (log10)” value rises from 1.9 to 2.63.

Compared with “AGCAGAGCATGGACCGGTTTTCCCGGTAATCCGTATTTGAG (site AGCAGAGCTCT)”, “AGCAGTACATGGACCGGTTTTCCCGGTAATCCGTATTTGAT (site AGCAGTACTAT)” is lower in “recombinant UMI read abundance (log10)” value: 2.54 for the first, 1.79 for the second.

Going from “AGCATTGCATGGACCGGTTTTCCCGGTAATCCGTATTTGAA (site AGCATTGCTTT)” to “AGCATTTCATGGACCGGTTTTCCCGGTAATCCGTATTTGAC (site AGCATTTCTGT)”, the “recombinant UMI read abundance (log10)” value falls from 2.4 to 0.795.

“AGCATTTCATGGACCGGTTTTCCCGGTAATCCGTATTTGAC (site AGCCTTTCTGT)” and “AGCATTTCATGGACCGGTTTTCCCGGTAATCCGTATTTGAC (site AGCGTTTCTGT)” are the same in “recombinant UMI read abundance (log10)” value: 0 for the first, 0 for the second.

With “AGCATTTCATGGACCGGTTTTCCCGGTAATCCGTATTTGAC (site AGCTTTTCTGT)” the “recombinant UMI read abundance (log10)” value was 0.236.
